Results taken from patent US20170196834A1, “PREPARATION AND APPLICATION OF FLAVONOL AS BRAIN-TARGETING SYNERGIST” (GUANGDONG PHARMACEUTICAL UNIVERSITY, priority 2014, published 2017).
Blank lines part the entries; values can stand above or below the compound they belong to.

Columns and labels:
[1] = tested on: MCAO forebrain ischemia; experiment: MCAO forebrain ischemia rats, infarction area, nerve regeneration, learning and memory (Example 6); format: in vivo; settings: 100 mg vinpocetine/edaravone/oxiracetam per kg, intragastric, 7 days after administration
Experimental: In addition, 70 rats of MCAO forebrain ischemia were prepared, and they were administrated with solvent saline, or administrated with LXN6, LXN7 or LXN8, containing vinpocetine, edaravone or oxiracetam, respectively, at a dosage of 100 mg vinpocetine/edaravone/oxiracetam per kg body weight, or administrated with vinpocetine, edaravone or oxiracetam at a dosage of 100 mg/kg.
Intragastric administration at an amount of 20 ml/kg was conducted, for 10 rats per group; Animals were sacrificed 7 days after administration, to observe the improvement rate of cerebral infarction area and the improvement rate of nerve regeneration, learning and memory ability.

[2] = Vinpocetine, edaravone, oxiracetam in blood and brain tissue 0.5 h after intragastric administration, UPLC-MS (Example 6); format: in vivo; settings: rat, oral, SD rats, intragastric 100 mg/kg
Experimental: Treatment Group: LXN6, LXN7, LXN8 were made into suspensions respectively. Five SD rats were administered the suspensions at the dose of 100 mg/kg and the volume of 20 ml/kg by intragastric administration;
Control group: vinpocetine, edaravone, oxiracetam were made into suspension. Five SD rats were administered the suspension at the dose of 100 mg/kg and the volume of 20 ml/kg by intragastric administration;
The rats were drewd blood 0.5 h after administration, then sacrificed under anaesthesia. Brain tissues were taken to prepare brain homogenates. The content of active ingredient in the blood and brain tissues was detected by UPLC-MS.

[3] = cited from earlier work
[4] = tested on: MCAO forebrain ischemia; experiment: MCAO forebrain ischemia rats, improvement rate of cerebral infarction area (Example 1); format: in vivo; settings: gavage, 7 days after administration
Experimental: (§1) In addition, […] of MCAO forebrain ischemia were prepared, and they were administered solvent saline, 100 mg/kg LXN1 or ginsenoside Rb1 by gavage at 20 ml/kg, 10 rats per group; Animals were sacrificed 7 days after administration, to observe the improvement rate of cerebral infarction area.

[5] = Rb1 in blood and brain tissues 0.5 h after intragastric administration, UPLC-MS (Example 1); format: in vivo; settings: SD rats, equivalent to ginsenoside Rb1 100 mg/kg, 0.5 h after administration
Experimental: Treatment Group: The LXN1-1 and LXN1-2 were made into suspension, administered to SD rats by intragastric administration. Five rats were given 20 ml/kg according to the dose of 125/150 mg/kg (equivalent to ginsenoside Rb1 100 mg/kg);
Control group: ginsenoside […] extract was made into suspension, administered to SD rats by intragastric administration. Five rats were given ginsenoside Rb1 at the volume of 20 ml/kg according to the dose of 100 mg/kg;
The rats were drew blood 0.5 h after administration and then sacrificed under anaesthesia. Brain tissues were taken to prepare brain homogenates. The content of TCM active ingredient in the blood and brain tissues was detected by UPLC-MS.

[6] = Levodopa in blood and brain tissues 0.5 h after intragastric administration, UPLC-MS (Example 7); format: in vivo; settings: rat, oral, SD rats, intragastric 100 mg/kg levodopa
Experimental: Five SD rats were administered the suspension at the dose of 100 mg/kg levodopa and the volume of 20 ml/kg by intragastric administration;
Control group: The levodopa was made into suspension. Five SD rats were administered the suspension at the dose of 100 mg/kg and the volume of 20 ml/kg by intragastric administration;
The rats were drew blood 0.5 h after administration, and then sacrificed under anaesthesia. Brain tissues were taken to prepare brain homogenates. The content of active ingredient in the blood and brain tissues was detected by UPLC-MS.

[7] = tested on: Parkinson's disease; experiment: Clinical treatment of Parkinson's disease (LXN9, LXN10, levodopa); format: in vivo, human
Text: (1) Clinical Data and Methods • Same as above.
Profile of patients: All selected patients were from department of neurology, which diagnosed with Parkinson's disease according to the Parkinson's disease diagnostic criteria in clinical examination during 2010-2014. a total of 120 cases, including 66 males, 54 females; aged 50-78 years, and 62.8 years on average, with the shortest duration of 1 year, and longest duration of 13 years, 3.6 years on average.
Levodopa tablet group: (specification of 250 mg/tablet) 1 tablet/time, 3 times/d.
LXN 10 capsule group: 250 mg/capsule, 1 capsule per time, 3 times a day.
Fifteen days as a course in all groups, a total of 9 months for medication; and during the period, other drugs regulating cerebral vasodilation, brain cell metabolism and neurological functions were discontinued. […]

[8] = tested on: 6-hydroxydopamine PD models; experiment: 6-hydroxydopamine PD model rats, behavioural indexes; format: in vivo; settings: 6-hydroxydopamine PD rats, 100 mg/kg levodopa by gavage, 15 days
Experimental: Animals were administered for 15 days, to observe the changes of five indexes, including slow-moving test, grasping experiment, tail stiffness, change of tonic symptoms and tremor test.

[9] = Stilbene glucoside in blood and brain tissues 0.5 h after intragastric administration, UPLC-MS (Example 3); format: in vivo; settings: SD rats, 100 mg/kg stilbene glucoside, 0.5 h after administration
Experimental: Treatment Group: LXN2-1 and LXN2-2 were made into suspension. 5 SD rats were administered the suspension with the dose of 100 mg/kg stilbene glucoside and the volume of 20 ml/kg by intragastric administration;
Control group: stilbene glucoside extract was made into suspension. 5 SD rats were administered the suspension at the dose of 100 mg/kg stilbene glucoside and the volume of 20 ml/kg by intragastric administration;
The rats were drew blood 0.5 h after administration and then sacrificed under anaesthesia. Brain tissues were taken to prepare brain homogenates. The content of stilbene glucoside in the blood and brain tissues were detected by UPLC-MS.

[10] = tested on: 4-VO local cerebral ischemia; experiment: 4-VO local cerebral ischemia rats, nerve regeneration, learning and memory (Example 3); format: in vivo; settings: 4-VO rats, gavage, 7 days after administration
Experimental: In addition, 40 rats of 4-VO local cerebral ischemia were prepared and they were administered with solvent saline, 100 mg/kg […], […] and stilbene glucoside by gavage at the volume of 20 ml/kg, 10 rats per group; Animals were sacrificed 7 days after administration, to observe the improve rate of nerve regeneration, learning and memory.

[11] = tested on: MCAO forebrain ischemia; experiment: MCAO forebrain ischemia rats, improvement rate of cerebral infarction area (Example 2); format: in vivo; settings: gavage, 7 days after administration
Experimental: as §1, with “administered with” for “administered”, “LXN11 and” for “LXN1 or”, “Rg1” for “Rb1”

Compound: COc1ccc([C@@H]2CC(=O)c3c(O)cc(O[C@@H]4O[C@H](CO[C@@H]5O[C@@H](C)[C@H](O)[C@@H](O)[C@H]5O)[C@@H](O)[C@H](O)[C@H]4O)cc3O2)cc1O [Hesperidin]
solubility in water [3]: insoluble in water

Compound: O=c1c(O)c(-c2ccc(O)cc2)oc2cc(O)cc(O)c12 [Kaempferol]
solubility in water [3]: slightly soluble in water

Compound: CC(C)=CCC[C@](C)(O[C@@H]1O[C@H](CO[C@@H]2O[C@H](CO)[C@@H](O)[C@H](O)[C@H]2O)[C@@H](O)[C@H](O)[C@H]1O)[C@H]1CC[C@]2(C)[C@@H]1[C@H](O)C[C@@H]1[C@@]3(C)CC[C@H](O[C@@H]4O[C@H](CO)[C@@H](O)[C@H](O)[C@H]4O[C@@H]4O[C@H](CO)[C@@H](O)[C@H](O)[C@H]4O)C(C)(C)[C@@H]3CC[C@]12C [Rb1, ginsenoside Rb1]
Improvement rate of cerebral infarction area [4]: 22.1 ± 9.1%
Rb1 content in brain tissues [5]: 4.12 ± 1.13 ng/g
Rb1 plasma concentration [5]: 3.35 ± 0.68 µg/mL

Compound: C[C@@H]1O[C@@H](OC[C@H]2O[C@@H](Oc3c(-c4ccc(O)c(O)c4)oc4cc(O)cc(O)c4c3=O)[C@H](O)[C@@H](O)[C@@H]2O)[C@H](O)[C@H](O)[C@H]1O [Rutin]
solubility in boiling water ([3]; boiling water): soluble in boiling water
solubility in water [3]: not soluble in water

Compound: N[C@@H](Cc1ccc(O)c(O)c1)C(=O)O [Levodopa, levodopa]
concentration at 0.5 h ([6]; blood, read-out: levodopa Content in the blood): 114000 ng/mL
concentration at 0.5 h ([6]; brain, read-out: levodopa Content in the brain tissues): 284 ng/mL
Daily Living Activity (UPDRS-II) Score, 1 month after treatment ([7]; PD patients, n=40): 14.12 ± 5.31
Daily Living Activity (UPDRS-II) Score, 3 months after treatment ([7]; PD patients, n=40): 12.49 ± 5.10
Daily Living Activity (UPDRS-II) Score, 6 months after treatment ([7]; PD patients, n=40): 11.12 ± 3.31
Daily Living Activity (UPDRS-II) Score, 12 months after treatment ([7]; PD patients, n=40): 10.32 ± 3.31
Daily Living Activity (UPDRS-II) Score, Before treatment ([7]; PD patients, n=40): 15.61 ± 5.71
daily life satisfaction (LSIB) scores, 1 month after treatment ([7]; PD patients, n=40): 13.11 ± 3.92
daily life satisfaction (LSIB) scores, 3 months after treatment ([7]; PD patients, n=40): 14.91 ± 3.16
daily life satisfaction (LSIB) scores, 6 months after treatment ([7]; PD patients, n=40): 16.85 ± 3.15
daily life satisfaction (LSIB) scores, 12 months after treatment ([7]; PD patients, n=40): 17.24 ± 3.16
daily life satisfaction (LSIB) scores, Before treatment ([7]; PD patients, n=40): 12.59 ± 2.02
motor complications (UPDRS-IV) scores, 1 month after treatment ([7]; PD patients, n=40): 2.93 ± 0.86
motor complications (UPDRS-IV) scores, 3 months after treatment ([7]; PD patients, n=40): 2.46 ± 0.61
motor complications (UPDRS-IV) scores, 6 months after treatment ([7]; PD patients, n=40): 2.15 ± 0.56
motor complications (UPDRS-IV) scores, 12 months after treatment ([7]; PD patients, n=40): 1.79 ± 0.56
motor complications (UPDRS-IV) scores, Before treatment ([7]; PD patients, n=40): 3.59 ± 1.02
motor function examination (UPDRS-III) scores, 1 month after treatment ([7]; PD patients, n=40): 34.16 ± 7.91
motor function examination (UPDRS-III) scores, 3 months after treatment ([7]; PD patients, n=40): 28.91 ± 6.61
motor function examination (UPDRS-III) scores, 6 months after treatment ([7]; PD patients, n=40): 24.85 ± 6.56
motor function examination (UPDRS-III) scores, 12 months after treatment ([7]; PD patients, n=40): 21.15 ± 6.56
motor function examination (UPDRS-III) scores, Before treatment ([7]; PD patients, n=40): 37.99 ± 10.23
psychiatric, behavioral, and emotional scores (UPDRS-1), 1 month after treatment ([7]; PD patients, n=40): 3.15 ± 0.81
psychiatric, behavioral, and emotional scores (UPDRS-1), 3 months after treatment ([7]; PD patients, n=40): 2.29 ± 0.73
psychiatric, behavioral, and emotional scores (UPDRS-1), 6 months after treatment ([7]; PD patients, n=40): 1.85 ± 0.53
psychiatric, behavioral, and emotional scores (UPDRS-1), 12 months after treatment ([7]; PD patients, n=40): 1.79 ± 0.59
psychiatric, behavioral, and emotional scores (UPDRS-1), Before treatment ([7]; PD patients, n=40): 3.59 ± 1.02
Curative effect for PD: Overall response rate (ORR) ([7]; clinically cured, markedly effective and effective cases): 80%
Curative effect for PD: Clinically cured % ([7]; of 40 cases): 0%
Curative effect for PD: Clinically cured n ([7]; of 40 cases): 0
Curative effect for PD: Effective % ([7]; of 40 cases): 32.2%
Curative effect for PD: Effective n ([7]; of 40 cases): 13
Curative effect for PD: Ineffective % ([7]; of 40 cases): 20.0%
Curative effect for PD: Ineffective n ([7]; of 40 cases): 8
Curative effect for PD: Markedly effective % ([7]; of 40 cases): 47.8%
Curative effect for PD: Markedly effective n ([7]; of 40 cases): 19
Duration of slow-moving test [8]: 15.5 min
EMG group discharge frequency [8]: 3.1 times/sec
Grip Test Duration [8]: 40.1 min
Muscle tremor frequency [8]: 10.1 times, minutes
tail stiffness time [8]: 10.2 min

Compound: CC(C)=CCC[C@](C)(O[C@@H]1O[C@H](CO)[C@@H](O)[C@H](O)[C@H]1O)[C@H]1CC[C@]2(C)[C@@H]1[C@H](O)C[C@@H]1[C@@]3(C)CC[C@H](O)C(C)(C)[C@@H]3[C@@H](O[C@@H]3O[C@H](CO)[C@@H](O)[C@H](O)[C@H]3O)C[C@]12C [Rg1, ginsenoside Rg1]
Improvement rate of cerebral infarction area [11]: 26.1 ± 7.1%

Compound: CC1=NN(c2ccccc2)C(=O)C1 [Edaravone, edaravone]
Improvement rate of learning and memory [1]: 45.1
Infarction area [1]: 24.1%
Nerve regeneration rate [1]: 80%
Space exploration distance [1]: 51.0 cm
concentration at 0.5 h ([2]; blood, read-out: Edaravone content in the blood): 58300 ng/mL
concentration at 0.5 h ([2]; brain, read-out: Edaravone content in the brain tissue): 128 ng/mL

Second part, led by results:

concentration at 0.5 h ([2]; blood, read-out: Oxiracetam content in the blood): 82300 ng/mL
concentration at 0.5 h ([2]; brain, read-out: Oxiracetam content in the brain tissue): 173 ng/mL
Compound: NC(=O)CN1CC(O)CC1=O (centres unmarked) [Oxiracetam, oxiracetam]
Improvement rate of learning and memory [1]: 56.9
Infarction area [1]: 24.5%
Nerve regeneration rate [1]: 85%
Space exploration distance [1]: 54.0 cm

concentration at 0.5 h ([2]; blood, read-out: Vinpocetine content in the blood): 84400 ng/mL
concentration at 0.5 h ([2]; brain, read-out: Vinpocetine content in the brain tissue): 124 ng/mL
Compound: CCOC(=O)C1=C[C@]2(CC)CCCN3CCc4c(n1c1ccccc41)[C@@H]32 [Vinpocetine, vinpocetine]
Improvement rate of learning and memory [1]: 59.9
Infarction area [1]: 23.1%
Nerve regeneration rate [1]: 87%
Space exploration distance [1]: 56.2 cm

Content of stilbene glucoside in brain tissues [9]: 40.2 ± 16.1 ng/g
Plasma concentration of stilbene glucoside [9]: 3350 ± 680 ng/mL
Compound: stilbene glucoside
Improvement rate of learning and memory [10]: 31.6 ± 21.0%
Nerve regeneration rate [10]: 81.2 ± 35.6%
